# From patent US9932340B2, “Substituted indoles” (AbbVie Inc., priority 2014, dated 2018)
# Target: SUV420H1 enzyme (Homo sapiens, UniProt Q4FZB7)
# Test: TR-FRET SAH SUV420H1 enzyme inhibition assay
# Assay type: biochemical
# Conditions: Histone Peptide H4(8-30)me1 and SAM, overnight at room temp, TR-FRET detection of SAH, read-out: TR-FRET SAH_SUV420H1 IC50
# Summary of the method: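 SUV420H1 (90 nM) preincubated 30 min with compound (3-fold dilutions, 50 to 0.00075 μM), then H4(8-30)me1 peptide 5 nM and SAM 4 nM added, overnight at room temp. SAH product detected by TR-FRET with Tb anti-SAH antibody and Oregon Green-SAH in RIPA buffer, 4 h; IC50 from Hill fit, asymptotes fixed 0-100%.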
# Chain of SUV420H1 enzyme (Q4FZB7 whole entry): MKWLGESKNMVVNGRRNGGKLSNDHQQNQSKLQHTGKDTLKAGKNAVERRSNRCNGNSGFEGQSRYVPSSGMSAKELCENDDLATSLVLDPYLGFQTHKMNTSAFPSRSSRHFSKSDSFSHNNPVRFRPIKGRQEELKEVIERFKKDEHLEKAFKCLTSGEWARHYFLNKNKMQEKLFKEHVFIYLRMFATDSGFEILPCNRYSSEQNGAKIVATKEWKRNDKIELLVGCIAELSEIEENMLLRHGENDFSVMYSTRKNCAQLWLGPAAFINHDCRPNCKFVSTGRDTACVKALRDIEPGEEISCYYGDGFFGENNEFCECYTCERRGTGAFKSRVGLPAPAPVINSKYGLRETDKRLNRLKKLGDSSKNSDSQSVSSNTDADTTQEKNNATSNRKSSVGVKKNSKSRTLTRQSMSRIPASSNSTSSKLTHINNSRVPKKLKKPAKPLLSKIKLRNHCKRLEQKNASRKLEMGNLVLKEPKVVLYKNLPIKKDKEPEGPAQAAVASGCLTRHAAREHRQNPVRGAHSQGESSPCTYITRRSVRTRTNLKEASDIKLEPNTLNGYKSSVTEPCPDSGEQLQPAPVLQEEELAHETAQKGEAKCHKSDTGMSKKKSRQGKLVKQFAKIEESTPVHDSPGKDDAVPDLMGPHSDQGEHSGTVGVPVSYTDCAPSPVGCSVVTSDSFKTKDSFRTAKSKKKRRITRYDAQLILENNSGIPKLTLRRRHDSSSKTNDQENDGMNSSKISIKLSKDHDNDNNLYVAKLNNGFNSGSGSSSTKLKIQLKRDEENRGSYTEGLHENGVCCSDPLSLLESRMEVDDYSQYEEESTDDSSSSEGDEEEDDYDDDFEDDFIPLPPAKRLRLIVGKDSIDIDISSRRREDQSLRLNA
row,IC50,Structure (SMILES)
1,0.164 µM,"N#Cc1ccc(C(=O)NCc2cc3cc(Cl)cc(Cn4cnc5c(N)ncnc54)c3[nH]2)cn1 [Example 240, N-({7-[(6-amino-9H-purin-9-yl)methyl]-5-choro-1H-indol-2-yl}methyl)-6-cyanopyridine-3-carboxamide]"
2,7.29 µM,"Cc1ccc(C(=O)NCc2cc3cc(Cl)cc(Cn4cnc5c(N)ncnc54)c3[nH]2)cc1 [Example 246, N-({7-[(6-amino-9H-purin-9-yl)methyl]-5-chloro-1H-indol-2-yl}methyl)-4-methylbenzamide]"
3,9.38 µM,"Cc1cccc(C(=O)NCc2cc3cc(Cl)cc(Cn4cnc5c(N)ncnc54)c3[nH]2)c1 [Example 247, N-({7-[(6-amino-9H-purin-9-yl)methyl]-5-chloro-1H-indol-2-yl}methyl)-3-methylbenzamide]"
4,0.571 µM,"Cc1ccccc1C(=O)NCc1cc2cc(Cl)cc(Cn3cnc4c(N)ncnc43)c2[nH]1 [Example 248, N-({7-[(6-amino-9H-purin-9-yl)methyl]-5-chloro-1H-indol-2-yl}methyl)-2-methylbenzamide]"
5,> 50 µM,"Nc1ncnc2c1ncn2Cc1cc(Cl)cc2cc(CNC(=O)Cc3ccc(F)cc3)[nH]c12 [Example 254, N-({7-[(6-amino-9H-purin-9-yl)methyl]-5-chloro-1H-indol-2-yl}methyl)-2-(4-fluorophenyl)acetamide]"
6,15.5 µM,"Nc1ncnc2c1ncn2Cc1cc(Cl)cc2cc(CNC(=O)Cc3cccc(F)c3)[nH]c12 [Example 255, N-({7-[(6-amino-9H-purin-9-yl)methyl]-5-chloro-1H-indol-2-yl}methyl)-2-(3-fluorophenyl)acetamide]"
7,> 50 µM,"Nc1ncnc2c1ncn2Cc1cc(Cl)cc2cc(CNC(=O)Cc3ccccc3F)[nH]c12 [Example 256, N-({7-[(6-amino-9H-purin-9-yl)methyl]-5-chloro-1H-indol-2-yl}methyl)-2-(2-fluorophenyl)acetamide]"
8,4.58 µM,"COc1ccc(C(=O)NCc2cc3cc(Cl)cc(Cn4cnc5c(N)ncnc54)c3[nH]2)cc1 [Example 258, N-({7-[(6-amino-9H-purin-9-yl)methyl]-5-chloro-1H-indol-2-yl}methyl)-4-methoxybenzamide]"
9,3.53 µM,"COc1cccc(C(=O)NCc2cc3cc(Cl)cc(Cn4cnc5c(N)ncnc54)c3[nH]2)c1 [Example 259, N-({7-[(6-amino-9H-purin-9-yl)methyl]-5-chloro-1H-indol-2-yl}methyl)-3-methoxybenzamide]"
10,3.55 µM,"COc1ccccc1C(=O)NCc1cc2cc(Cl)cc(Cn3cnc4c(N)ncnc43)c2[nH]1 [Example 260, N-({7-[(6-amino-9H-purin-9-yl)methyl]-5-chloro-1H-indol-2-yl}methyl)-2-methoxybenzamide]"

# Second part, the compound before the results:
row,Structure (SMILES),IC50
1,"Cc1cc(C(=O)NCc2cc3c(Cl)ccc(Cn4cnc5c(N)ncnc54)c3[nH]2)c(C)nn1 [Example 239, N-({7-[(6-amino-9H-purin-9-yl)methyl]-4-chloro-1H-indol-2-yl}methyl)-3,6-dimethylpyridazine-4-carboxamide]",0.0547 µM
2,"Cc1ccc(CNCc2cc3cc(Cl)cc(Cn4cnc5c(N)ncnc54)c3[nH]2)cc1 [Example 241, 9-[(5-chloro-2-{[(4-methylbenzyl)amino]methyl}-1H-indol-7-yl)methyl]-9H-purin-6-amine]",3.63 µM
3,"Cc1ccccc1CNCc1cc2cc(Cl)cc(Cn3cnc4c(N)ncnc43)c2[nH]1 [Example 242, 9-[(5-chloro-2-{[(2-methylbenzyl)amino]methyl}-1H-indol-7-yl)methyl]-9H-purin-6-amine]",2.64 µM
4,Cc1cccc(Cl)c1CNCc1cc2cc(Cl)cc(Cn3cnc4c(N)ncnc43)c2[nH]1 [Example 243],5.46 µM
5,"Cc1cccc(F)c1CNCc1cc2cc(Cl)cc(Cn3cnc4c(N)ncnc43)c2[nH]1 [Example 244, 9-[(5-chloro-2-{[(2-fluoro-6-methylbenzyl)amino]methyl}-1H-indol-7-yl)methyl]-9H-purin-6-amine]",1.94 µM
6,"Cc1cccc(CNCc2cc3cc(Cl)cc(Cn4cnc5c(N)ncnc54)c3[nH]2)c1F [Example 245, 9-[(5-chloro-2-{[(2-fluoro-3-methylbenzyl)amino]methyl}-1H-indol-7-yl)methyl]-9H-purin-6-amine]",2.03 µM
7,"COc1cccc(CNCc2cc3cc(Cl)cc(Cn4cnc5c(N)ncnc54)c3[nH]2)c1 [Example 249, 9-[(5-chloro-2-{[(3-methoxybenzyl)amino]methyl}-1H-indol-7-yl)methyl]-9H-purin-6-amine]",3.31 µM
8,"COc1ccccc1CNCc1cc2cc(Cl)cc(Cn3cnc4c(N)ncnc43)c2[nH]1 [Example 250, 9-[(5-chloro-2-{[(2-methoxybenzyl)amino]methyl}-1H-indol-7-yl)methyl]-9H-purin-6-amine]",4.44 µM
9,"Nc1ncnc2c1ncn2Cc1cc(Cl)cc2cc(CNC(=O)Cc3ccc(Cl)cc3)[nH]c12 [Example 251, N-({7-[(6-amino-9H-purin-9-yl)methyl]-5-chloro-1H-indol-2-yl}methyl)-2-(4-chlorophenyl)acetamide]",> 50 µM
10,"Nc1ncnc2c1ncn2Cc1cc(Cl)cc2cc(CNC(=O)Cc3cccc(Cl)c3)[nH]c12 [Example 252, N-({7-[(6-amino-9H-purin-9-yl)methyl]-5-chloro-1H-indol-2-yl}methyl)-2-(3-chlorophenyl)acetamide]",2.14 µM
11,"Nc1ncnc2c1ncn2Cc1cc(Cl)cc2cc(CNC(=O)Cc3ccccc3Cl)[nH]c12 [Example 253, N-({7-[(6-amino-9H-purin-9-yl)methyl]-5-chloro-1H-indol-2-yl}methyl)-2-(2-chlorophenyl)acetamide]",36.1 µM
12,"Nc1ncnc2c1ncn2Cc1cc(Cl)cc2cc(CNC(=O)c3ccccc3C(F)(F)F)[nH]c12 [Example 257, N-({7-[(6-amino-9H-purin-9-yl)methyl]-5-chloro-1H-indol-2-yl}methyl)-2-(trifluoromethyl)benzamide]",0.493 µM
13,"Nc1ncnc2c1ncn2Cc1cc(Cl)cc2cc(CNC(=O)c3ccccc3OC(F)F)[nH]c12 [Example 261, N-({7-[(6-amino-9H-purin-9-yl)methyl]-5-chloro-1H-indol-2-yl}methyl)-2-(difluoromethoxy)benzamide]",1.99 µM
14,"CS(=O)(=O)c1cccc(CNCc2cc3cc(Cl)cc(Cn4cnc5c(N)ncnc54)c3[nH]2)c1 [Example 262, 9-{[5-chloro-2-({[3-(methylsulfonyl)benzyl]amino}methyl)-1H-indol-7-yl]methyl}-9H-purin-6-amine]",2.75 µM
15,"CS(=O)(=O)c1cc(CNCc2cc3cc(Cl)cc(Cn4cnc5c(N)ncnc54)c3[nH]2)ccc1F [Example 263, 9-{[5-chloro-2-({[4-fluoro-3-(methylsulfonyl)benzyl]amino}methyl)-1H-indol-7-yl]methyl}-9H-purin-6-amine]",1.75 µM
16,"CS(=O)(=O)c1ccc(CNCc2cc3cc(Cl)cc(Cn4cnc5c(N)ncnc54)c3[nH]2)cc1F [Example 264, 9-{[5-chloro-2-({[3-fluoro-4-(methylsulfonyl)benzyl]amino}methyl)-1H-indol-7-yl]methyl}-9H-purin-6-amine]",3.23 µM
17,"CS(=O)(=O)c1ccccc1C(=O)NCc1cc2cc(Cl)cc(Cn3cnc4c(N)ncnc43)c2[nH]1 [Example 265, N-({7-[(6-amino-9H-purin-9-yl)methyl]-5-chloro-1H-indol-2-yl}methyl)-2-(methylsulfonyl)benzamide]",2.14 µM
